Our source for the IC50 and melting point values is article PMC9382805, “Design, synthesis, anticancer evaluation and docking studies of novel 2-(1-isonicotinoyl-3-phenyl-1H-pyrazol-4-yl)-3-phenylthiazolidin-4-one derivatives as Aurora-A kinase inhibitors” (BMC Chemistry, 2022).

The subject of series [1] is HCT 116 and MCF-7 cell lines. The experiment in a line: cells. As to conditions: Homo sapiens, read-out: IC50, cytotoxicity, range over two cancer cell lines.
Description: (§1) MTT assay was engaged to evaluate the anticancer activity of synthesized compounds P(1–21) against various human cancer cell lines (breast cancer- MCF-7 and colorectal carcinoma- HCT116) [31–34].
(§2) The MTT test was carried out using the 3-(4,5-dimethyl-2-thiazolyl)-2,5-diphenyl-2H-tetrazolium (MTT) colorimetric test [33, 34]. […] The MTT test based on the reduction of MTT (yellow color) depends on cellular metabolic activities due to H-dependent cellular NAD (P) oxidoreductase enzymes [33]. […] The final product of MTT reduction is a purple formazan that can be easily dissolved in DMSO.
(§3) To test the anticancer activities of the synthesized compounds (selected based on docking studies), we evaluated the antiproliferative activity of compounds P (1–21) against HCT116 and MCF-7 cell lines. All the experiments were repeated at least thrice independently, the 50% inhibitory concentration (IC50) of new hybrids was determined (as the anticancer drug concentration causing a 50% reduction in cell viability) and calculated using a trendline equation.
The subject of series [2] is MCF-7 cell line (breast cancer). The experiment in a line: MTT cytotoxicity assay, MCF-7. The format is cell-based, human.
Description: as §1, §2, §3
Series [3] deals with recombinant human Aurora-A (Homo sapiens, UniProt O14965). The experiment in a line: biochemical. As to conditions: NADH consumption at 340 nm, 30 °C; read-out: IC50 ± SD, inhibition of Aurora-A kinase.
Description: At 30 °C, dilute enzyme (aurora A), substrates (NADH, NaCl, MgCl2, PEP, LDH, PK, and histones H3), ATP, and inhibitors (selected compounds as per in silico studies) in kinase buffer (HEPES) and this to 96 well plates and incubate for 60 min. Once the ATP substrate was added, the reaction began. With the reaction, NADH was continuously transformed into NAD^+ The activity of Aurora-A can be assayed by measuring the consumption of nicotinamide adenine dinucleotide plus hydrogen (NADH) at 340 nm. Absorbance at 340 nm was continuously recorded for 10 min. Inhibition of recombinant human Aurora-A by inhibitors was initially screened via an enzyme-coupled continuous spectrophotometric assay (Kishore et al., 2008; Aixia et al., 2011; Fancelli D et al., 2006).
The subject of series [4] is HCT116 cell line (colorectal carcinoma). The experiment in a line: MTT cytotoxicity assay, HCT116. It counts as cell-based, human.
Description: as §1, §2, §3
Where [5] appears, read: Homo sapiens, MCF7, read-out: IC50 ± SD, MCF-7, inhibition of growth of tumor cell lines.
Where [6] appears, read: Homo sapiens, HCT-116, read-out: IC50 ± SD, HCT-116, inhibition of growth of tumor cell lines.

Molecules are shown by their SMILES. Like-named read-outs stand apart in the source and are kept apart here.

Chain of recombinant human Aurora-A (O14965 whole entry): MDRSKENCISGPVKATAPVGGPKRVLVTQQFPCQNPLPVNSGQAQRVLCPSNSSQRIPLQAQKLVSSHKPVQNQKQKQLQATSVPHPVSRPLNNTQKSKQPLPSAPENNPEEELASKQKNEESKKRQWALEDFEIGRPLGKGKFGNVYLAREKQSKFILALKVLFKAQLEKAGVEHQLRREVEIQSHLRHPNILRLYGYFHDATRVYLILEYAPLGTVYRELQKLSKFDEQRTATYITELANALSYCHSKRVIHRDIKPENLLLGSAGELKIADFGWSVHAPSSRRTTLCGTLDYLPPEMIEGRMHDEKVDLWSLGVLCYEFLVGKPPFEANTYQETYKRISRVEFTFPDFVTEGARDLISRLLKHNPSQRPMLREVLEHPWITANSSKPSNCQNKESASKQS

Take `COc1ccc(N2C(=O)CSC2c2cn(C(=O)c3ccncc3)nc2-c2ccc(Br)cc2)cc1` (stereo not drawn) [Compound P-20, 2-(3-(4-bromophenyl)-1-isonicotinoyl-1H-pyrazol-4-yl)-3-(4-methoxyphenyl) thiazolidin-4-one]: the 50% inhibitory concentration (IC50) in series [1] was 390 to 560 nM; in series [2] (setting [5]), 560 ± 60 nM; in series [3] it was 220 ± 80 nM; in series [4] (setting [6]), 420 ± 80 nM.
The compound `COc1ccc(-c2nn(C(=O)c3ccncc3)cc2C2SCC(=O)N2c2ccc([N+](=O)[O-])cc2)cc1` (stereo not drawn) [Compound P-9, 2-(1-isonicotinoyl-3-(4-methoxyphenyl)-1H-pyrazol-4-yl)-3-(4-nitrophenyl)thiazolidin-4-one] had a melting point of 308 to 310 °C. In addition, the IC50 in series [2] (setting [5]) came out at 1620 ± 50 nM. Besides, in series [3], the IC50 was 1450 ± 50 nM. Moreover, the IC50 in series [4] (setting [6]) was 1450 ± 180 nM.
Compound `COc1ccc(-c2nn(C(=O)c3ccncc3)cc2C2SCC(=O)N2c2ccccc2OC)cc1` (stereo not drawn) [Compound P-14] yielded a melting point of 336 to 338 °C.
For `O=C1CSC(c2cn(C(=O)c3ccncc3)nc2-c2ccc([N+](=O)[O-])cc2)N1c1ccccc1` (stereo not drawn) [Compound P-1, 2-(1-isonicotinoyl-3-(4-nitrophenyl)-1H-pyrazol-4-yl)-3-phenylthiazolidin-4-one], the IC50 in series [2] (setting [5]) stood at 4400 ± 180 nM; in series [3], 2340 ± 360 nM; in series [4] (setting [6]), 2300 ± 140 nM.
`COc1ccc(-c2nn(C(=O)c3ccncc3)cc2C2SCC(=O)N2c2ccc(OC)cc2)cc1` (stereo not drawn) [Compound P-13, 2-(1-isonicotinoyl-3-(4-methoxyphenyl)-1H-pyrazol-4-yl)-3-(4-methoxyphenyl) thiazolidin-4-one]: the 50% inhibitory concentration (IC50) was found to be 8210 ± 350 nM in series [2] (setting [5]), 12400 ± 850 nM in series [3] and 5870 ± 420 nM in series [4] (setting [6]).
Consider `O=C1CSC(c2cn(C(=O)c3ccncc3)nc2-c2ccc([N+](=O)[O-])cc2)N1c1ccc([N+](=O)[O-])cc1` (stereo not drawn) [Compound P-2, 2-(1-isonicotinoyl-3-(4-nitrophenyl)-1H-pyrazol-4-yl)-3-(4-nitrophenyl)thiazolidin-4-one], for which the concentration for half-maximal inhibition (IC50) in series [2] (setting [5]) turned out to be 3260 ± 310 nM; in series [3], 3570 ± 350 nM; in series [4] (setting [6]), 3520 ± 330 nM.
On to `COc1ccccc1N1C(=O)CSC1c1cn(C(=O)c2ccncc2)nc1-c1ccc(Br)cc1` (stereo not drawn) [Compound P-21], for which the melting point fell in the range of 260 to 262 °C.
In turn, `COc1ccc(-c2nn(C(=O)c3ccncc3)cc2C2SCC(=O)N2c2cccc(Cl)c2)cc1` (stereo not drawn) [Compound P-12, 3-(3-chlorophenyl)-2-(1-isonicotinoyl-3-(4-methoxyphenyl)-1H-pyrazol-4-yl)thiazolidin-4-one] came in with a melting point of 338 to 340 °C. Moreover, the IC50 in series [2] (setting [5]) was 4350 ± 470 nM. Further, in series [3], the IC50 amounted to 5590 ± 370 nM. Moreover, the IC50 in series [4] (setting [6]) worked out at 4060 ± 380 nM.
Taken in the same sequence, the figures for `O=C1CSC(c2cn(C(=O)c3ccncc3)nc2-c2ccc([N+](=O)[O-])cc2)N1c1ccccc1[N+](=O)[O-]` (stereo not drawn) [Compound P-3, 2-(1-isonicotinoyl-3-(4-nitrophenyl)-1H-pyrazol-4-yl)-3-(2-nitrophenyl)thiazolidin-4-one] were 282 to 284 °C, 4490 ± 420 nM, 7250 ± 800 nM and 4470 ± 450 nM.
For `O=C1CSC(c2cn(C(=O)c3ccncc3)nc2-c2ccc(Br)cc2)N1c1ccc([N+](=O)[O-])cc1` (stereo not drawn) [Compound P-16, 2-(3-(4-bromophenyl)-1-isonicotinoyl-1H-pyrazol-4-yl)-3-(4-nitrophenyl)thiazolidin-4-one], in that order: 268 to 270 °C, 2250 ± 250 nM, 2100 ± 150 nM and 2010 ± 110 nM.
On to `COc1ccc(N2C(=O)CSC2c2cn(C(=O)c3ccncc3)nc2-c2ccc([N+](=O)[O-])cc2)cc1` (stereo not drawn) [Compound P-6, 2-(1-isonicotinoyl-3-(4-nitrophenyl)-1H-pyrazol-4-yl)-3-(4-methoxyphenyl)thiazolidin-4-one], for which the IC50 is 370 to 440 nM in series [1], 440 ± 60 nM in series [2] (setting [5]), 180 ± 50 nM in series [3] and 370 ± 150 nM in series [4] (setting [6]).
Regarding `Cc1cc(Nc2cc(N3CCN(C)CC3)nc(Sc3ccc(NC(=O)C4CC4)cc3)n2)[nH]n1` [VX-680, Tozasertib, reference compound], the IC50 amounted to 400 ± 30 nM in series [2] (Homo sapiens, MCF7, MTT assay, MCF-7, read-out: IC50 ± SD, MCF-7, inhibition of growth of tumor cell lines); 380 ± 20 nM in series [2] (MTT assay, MCF-7, listed as VX-680 (Tozasertib), read-out: IC50 ± SD, MCF-7, inhibition of growth of tumor cell lines); 320 ± 50 nM in series [4] (Homo sapiens, HCT-116, MTT assay, HCT116, read-out: IC50 ± SD, HCT-116, inhibition of growth of tumor cell lines); 300 ± 30 nM in series [4] (MTT assay, HCT116, listed as VX-680 (Tozasertib), read-out: IC50 ± SD, HCT-116, inhibition of growth of tumor cell lines).
Compound `COc1ccc(-c2nn(C(=O)c3ccncc3)cc2C2SCC(=O)N2c2ccccc2[N+](=O)[O-])cc1` (stereo not drawn) [Compound P-10, 2-(1-isonicotinoyl-3-(4-methoxyphenyl)-1H-pyrazol-4-yl)-3-(2-nitrophenyl)thiazolidin-4-one] yielded a melting point of 322 to 324 °C. Besides, the IC50 in series [2] (setting [5]) stood at 1030 ± 110 nM. Further, in series [3], the IC50 came out at 650 ± 90 nM. Moreover, the concentration for half-maximal inhibition (IC50) in series [4] (setting [6]) was 780 ± 40 nM.
Turning to `O=C1CSC(c2cn(C(=O)c3ccncc3)nc2-c2ccc([N+](=O)[O-])cc2)N1c1ccc(Cl)cc1` (stereo not drawn) [Compound P-4, 3-(4-chlorophenyl)-2-(1-isonicotinoyl-3-(4-nitrophenyl)-1H-pyrazol-4-yl)thiazolidin-4-one], the melting point was in the range of 286 to 288 °C. For the same compound, in series [2] (setting [5]), the IC50 came to 2550 ± 70 nM. In series [3], the IC50 was 1330 ± 150 nM. Also, the IC50 in series [4] (setting [6]) was found to be 1350 ± 70 nM.
As to `O=C1CSC(c2cn(C(=O)c3ccncc3)nc2-c2ccc(Br)cc2)N1c1cccc(Cl)c1` (stereo not drawn) [Compound P-19], the melting point was 248 to 250 °C. For the same compound, in series [2] (setting [5]), the IC50 worked out at 1210 ± 50 nM. In addition, in series [3], the IC50 was 790 ± 70 nM. Moreover, the IC50 in series [4] (setting [6]) worked out at 1020 ± 120 nM.
For `O=C1CSC(c2cn(C(=O)c3ccncc3)nc2-c2ccc(Br)cc2)N1c1ccc(Cl)cc1` (stereo not drawn) [Compound P-18, 2-(3-(4-bromophenyl)-1-isonicotinoyl-1H-pyrazol-4-yl)-3-(4-chlorophenyl)thiazolidin-4-one], in that order: 244 to 246 °C, 1770 ± 150 nM, 1620 ± 110 nM and 1520 ± 90 nM.
For `COc1ccc(-c2nn(C(=O)c3ccncc3)cc2C2SCC(=O)N2c2ccccc2)cc1` (stereo not drawn) [Compound P-8, 2-(1-isonicotinoyl-3-(4-methoxyphenyl)-1H-pyrazol-4-yl)-3-phenylthiazolidin-4-one], in that order: 300 to 302 °C, 6080 ± 240 nM, 7320 ± 690 nM and 5350 ± 270 nM.
Taken in the same sequence, the figures for `COc1ccc(-c2nn(C(=O)c3ccncc3)cc2C2SCC(=O)N2c2ccc(Cl)cc2)cc1` (stereo not drawn) [Compound P-11, 3-(4-chlorophenyl)-2-(1-isonicotinoyl-3-(4-methoxyphenyl)-1H-pyrazol-4-yl)thiazolidin-4-one] were 318 to 320 °C, 2530 ± 190 nM, 2780 ± 140 nM and 2540 ± 200 nM.
The compound `O=C1CSC(c2cn(C(=O)c3ccncc3)nc2-c2ccc(Br)cc2)N1c1ccccc1` (stereo not drawn) [Compound P-15, 2-(3-(4-bromophenyl)-1-isonicotinoyl-1H-pyrazol-4-yl)-3-phenylthiazolidin-4-one] yielded a melting point of 256 to 258 °C. The IC50 in series [2] (setting [5]) came out at 2340 ± 270 nM. Moreover, the IC50 in series [3] is 2100 ± 130 nM. In addition, the IC50 in series [4] (setting [6]) came to 2180 ± 150 nM.
`COc1ccccc1N1C(=O)CSC1c1cn(C(=O)c2ccncc2)nc1-c1ccc([N+](=O)[O-])cc1` (stereo not drawn) [Compound P-7, 2-(1-isonicotinoyl-3-(4-nitrophenyl)-1H-pyrazol-4-yl)-3-(2-methoxyphenyl)thiazolidin-4-one]: the melting point fell in the range of 250 to 252 °C. Besides, the concentration for half-maximal inhibition (IC50) in series [2] (setting [5]) was found to be 880 ± 30 nM. Further, the IC50 in series [3] is 420 ± 120 nM. Moreover, the IC50 in series [4] (setting [6]) came out at 620 ± 30 nM.
Regarding `O=C1CSC(c2cn(C(=O)c3ccncc3)nc2-c2ccc([N+](=O)[O-])cc2)N1c1cccc(Cl)c1` (stereo not drawn) [Compound P-5, 3-(3-chlorophenyl)-2-(1-isonicotinoyl-3-(4-nitrophenyl)-1H-pyrazol-4-yl)thiazolidin-4-one], the melting point was in the range of 274 to 276 °C. For the same compound, the IC50 in series [2] (setting [5]) was 4010 ± 100 nM. Besides, in series [3], the half-maximal inhibitory concentration (IC50) turned out to be 4790 ± 830 nM. The IC50 in series [4] (setting [6]) came to 3880 ± 160 nM.
